In patent US10538555B2, “Macrocyclic inhibitors of the PD-1/PD-L1 and CD80(B7-1)/PD-L1 protein/protein interactions” (BRISTOL-MYERS SQUIBB COMPANY, priority 2014, dated 2020):
*1 amine or outer side, *2 acyl side, *3 side chain or, on linkers, in order; H or OH if unused. Where a SMILES comes first, the peptide text is derived from it. Bridges are numbered along the chain shown (N, C = ends). [ ]: non-standard residue; d: D form. ξ: configuration not given here. Trp(1-CH2COOH) = N[C@@H](Cc1cn(CC(=O)O)c2ccccc12)C(=O)O; Phe(3,4,5-F3) = N[C@@H](Cc1cc(F)c(F)c(F)c1)C(=O)O; NMePhe(4-F) = CN[C@@H](Cc1ccc(F)cc1)C(=O)O; d(cisHyp) = O=C(O)[C@H]1C[C@@H](O)CN1; Hyp = O=C(O)[C@@H]1C[C@@H](O)CN1; NMeF = CN[C@@H](Cc1ccccc1)C(=O)O; X1 = O=C([C@H]1COCCN1[*:1])[*:2]; dHyp = O=C(O)[C@H]1C[C@H](O)CN1; NMeNle = CCCC[C@H](NC)C(=O)O; dNle = CCCC[C@@H](N)C(=O)O; dPip = O=C(O)[C@H]1CCCCN1; hSer = N[C@@H](CCO)C(=O)O; NMeA = CN[C@@H](C)C(=O)O; Orn = NCCC[C@H](N)C(=O)O; Dab = NCC[C@H](N)C(=O)O; Dap = NC[C@H](N)C(=O)O; ξC = NC(CS)C(=O)O

The compounds below were run against T1, Human PD-L1/PD-1 (Homo sapiens, UniProt Q9NZQ7) (assay: HTRF Human PD-L1/PD-1 binding assay (PD-1-Ig/PD-L1-His)). Conditions: PD-L1-His 10 nM, PD-1-Ig 20 nM; class symbol; read-out: HTRF Human PD-L1/PD-1 Binding Assay IC50 Range.
T1 construct: TVMV protease cleavage site (C); made in house; host or cells: HEK293T cells
Outline: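 HTRF read-out (665/620 nm ratio) after 30 min equilibration with Eu-cryptate anti-Ig mAb (1 nM) and APC anti-His mAb (20 nM). Peptides preincubated 15 min with PD-L1-His (10 nM), then PD-1-Ig (20 nM) added for 15 min.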

T1 sequence (Q9NZQ7 with tags, fused parts or gaps): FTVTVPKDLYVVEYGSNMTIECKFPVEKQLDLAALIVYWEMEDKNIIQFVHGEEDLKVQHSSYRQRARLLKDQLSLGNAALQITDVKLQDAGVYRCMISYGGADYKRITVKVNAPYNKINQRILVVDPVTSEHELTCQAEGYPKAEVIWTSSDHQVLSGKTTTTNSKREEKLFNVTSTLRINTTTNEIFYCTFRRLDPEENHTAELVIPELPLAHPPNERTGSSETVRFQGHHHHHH

SMILES | IC50 [nM]
CCCC[C@H]1C(=O)N(C)[C@@H](CCCC)C(=O)N[C@@H](CCCCN)C(=O)N[C@H](C(=O)NCC(N)=O)CSCC(=O)N[C@@H](Cc2ccc(O)cc2)C(=O)N(C)[C@@H](C)C(=O)N[C@@H](CC(N)=O)C(=O)N2CCC[C@H]2C(=O)N[C@@H](Cc2cnc[nH]2)C(=O)N[C@@H](CCC(=O)O)C(=O)N2C[C@H](O)C[C@H]2C(=O)N[C@@H](Cc2c[nH]c3ccccc23)C(=O)N[C@@H](CO)C(=O)N[C@@H](Cc2cn(CC(=O)O)c3ccccc23)C(=O)N1C [Example 6297] ({CH2CO}-Y[NMeA]NPHE[Hyp]WS[Trp(1-CH2COOH)][NMeNle][NMeNle]KCG-NH2; thioether N-14) | 1 to 9.9
CCCC[C@H]1C(=O)N(C)[C@@H](CCCC)C(=O)N[C@@H](CO)C(=O)N[C@H](C(=O)NCC(N)=O)CSCC(=O)N[C@@H](Cc2ccc(OC)cc2)C(=O)N(C)[C@@H](C)C(=O)N[C@@H](CC(N)=O)C(=O)N2CCC[C@H]2C(=O)N[C@@H](CO)C(=O)N[C@@H](CCC(N)=O)C(=O)N2C[C@H](O)C[C@H]2C(=O)N[C@@H](Cc2c[nH]c3ccccc23)C(=O)N[C@@H](CO)C(=O)N[C@@H](Cc2c[nH]c3ccccc23)C(=O)N1C [Example 7138] ({CH2CO}-Y(Me)[NMeA]NPSQ[Hyp]WSW[NMeNle][NMeNle]SCG-NH2; thioether N-14) | 1 to 9.9
CCCC[C@H]1C(=O)N2C[C@H](O)C[C@@H]2C(=O)N[C@@H](CC(=O)O)C(=O)N[C@@H](C(C)C)C(=O)N(C)[C@@H](Cc2ccccc2)C(=O)N[C@@H](CCC(=O)O)C(=O)N2CCOC[C@@H]2C(=O)N[C@@H](Cc2c[nH]c3ccccc23)C(=O)N[C@@H](Cc2ccc(O)cc2)C(=O)N[C@@H](CC(C)C)C(=O)N[C@H](C(=O)NCC(N)=O)CSCC(=O)N[C@@H](Cc2cc(F)c(F)c(F)c2)C(=O)N(C)[C@@H](Cc2ccc(F)cc2)C(=O)N1C [Example 10594] ({CH2CO}-[Phe(3,4,5-F3)][NMePhe(4-F)][NMeNle][d(cisHyp)]DV[NMeF]E[X1]WYLCG-NH2; thioether N-13) | 1 to 9.9
CCCC[C@H]1NC(=O)[C@H](Cc2c[nH]c3ccccc23)NC(=O)[C@H](CO)NC(=O)[C@H](Cc2c[nH]c3ccccc23)NC(=O)[C@@H]2C[C@@H](O)CN2C(=O)[C@H](CCC(N)=O)NC(=O)[C@H](Cc2cnc[nH]2)NC(=O)[C@@H]2CCCN2C(=O)[C@H](CC(=O)O)NC(=O)[C@H](C)N(C)C(=O)[C@H](Cc2ccc(O)cc2)NC(=O)CSCC(C(=O)NCC(N)=O)NC(=O)[C@H](CCC(=O)O)NC(=O)[C@H](CCCC)N(C)C1=O (some centres unmarked) [Example 10128] ({CH2CO}-Y[NMeA]DPHQ[Hyp]WSW[dNle][NMeNle]E[ξC]G-NH2; thioether N-14) | 1000 to 10000
CCCC[C@H]1C(=O)N2C[C@@H](O)C[C@@H]2C(=O)N[C@@H](CC(=O)O)C(=O)N[C@@H](C(C)C)C(=O)N(C)[C@@H](Cc2ccccc2)C(=O)N[C@@H](CCC(=O)O)C(=O)N2CCCC[C@@H]2C(=O)N[C@@H](Cc2c[nH]c3ccccc23)C(=O)N[C@@H](Cc2ccc(O)cc2)C(=O)N[C@@H](CCC(N)=O)C(=O)N[C@H](C(=O)NCC(N)=O)CSCC(=O)N[C@@H](Cc2cc(F)c(F)c(F)c2)C(=O)N(C)[C@@H](Cc2ccc(F)cc2)C(=O)N1C [Example 10559] ({CH2CO}-[Phe(3,4,5-F3)][NMePhe(4-F)][NMeNle][dHyp]DV[NMeF]E[dPip]WYQCG-NH2; thioether N-13) | 1 to 9.9
CCCC[C@H]1C(=O)N(C)[C@@H](CCCC)C(=O)N[C@@H](CCCN)C(=O)N[C@H](C(=O)NCC(N)=O)CSCC(=O)N[C@@H](Cc2ccc(OC)cc2)C(=O)N(C)[C@@H](C)C(=O)N[C@@H](CC(=O)O)C(=O)N2CCC[C@H]2C(=O)N[C@@H](Cc2cnc[nH]2)C(=O)N[C@@H](CCCCN)C(=O)N2C[C@H](O)C[C@H]2C(=O)N[C@@H](Cc2c[nH]c3ccccc23)C(=O)N[C@@H](CCN)C(=O)N[C@@H](Cc2c[nH]c3ccccc23)C(=O)N1C [Example 7094] ({CH2CO}-Y(Me)[NMeA]DPHK[Hyp]W[Dab]W[NMeNle][NMeNle][Orn]CG-NH2; thioether N-14) | 1 to 9.9

Other lines, results leading:

IC50 [nM] | SMILES
10 to 99.9 | CCCC[C@H]1C(=O)N(C)[C@@H](CCCC)C(=O)N[C@@H](CCC(=O)O)C(=O)NC(C(=O)NCC(N)=O)CSCC(=O)N[C@@H](Cc2ccc(O)cc2)C(=O)N(C)[C@@H](C)C(=O)N[C@@H](CC(N)=O)C(=O)N2CCC[C@H]2C(=O)N[C@@H](Cc2c[nH]cn2)C(=O)N[C@@H](CC(N)=O)C(=O)N2CCC[C@H]2C(=O)N[C@@H](Cc2c[nH]c3ccccc23)C(=O)N[C@@H](CCO)C(=O)N[C@@H](Cc2c[nH]c3ccccc23)C(=O)N1C (some centres unmarked) [Example 9186] ({CH2CO}-Y[NMeA]NPHNPW[hSer]W[NMeNle][NMeNle]E[ξC]G-NH2; thioether N-14)
10 to 99.9 | CCCC[C@H]1C(=O)N(C)[C@@H](CCCC)C(=O)N[C@@H](CCCNC(=N)N)C(=O)NC(C(=O)NCC(N)=O)CSCC(=O)N[C@@H](Cc2ccc(O)cc2)C(=O)N(C)[C@@H](C)C(=O)N[C@@H](CC(N)=O)C(=O)N2CCC[C@H]2C(=O)N[C@@H](CC(N)=O)C(=O)N[C@@H](CC(N)=O)C(=O)N2C[C@H](O)C[C@H]2C(=O)N[C@@H](Cc2c[nH]c3ccccc23)C(=O)N[C@@H](CO)C(=O)N[C@@H](Cc2c[nH]c3ccccc23)C(=O)N1C (some centres unmarked) [Example 10014] ({CH2CO}-Y[NMeA]NPNN[Hyp]WSW[NMeNle][NMeNle]R[ξC]G-NH2; thioether N-14)
10 to 99.9 | CCCC[C@H]1C(=O)N(C)[C@@H](CCCC)C(=O)N[C@@H](CCC(=O)O)C(=O)N[C@H](C(=O)NCC(N)=O)CSCC(=O)N[C@@H](Cc2ccc(O)cc2)C(=O)N(C)[C@@H](C)C(=O)N[C@@H](CC(=O)O)C(=O)N2CCC[C@H]2C(=O)N[C@@H](CN)C(=O)N[C@@H](CC(C)C)C(=O)N2C[C@H](O)C[C@H]2C(=O)N[C@@H](Cc2c[nH]c3ccccc23)C(=O)N[C@@H](CCC(=O)O)C(=O)N[C@@H](Cc2c[nH]c3ccccc23)C(=O)N1C [Example 5257] ({CH2CO}-Y[NMeA]DP[Dap]L[Hyp]WEW[NMeNle][NMeNle]ECG-NH2; thioether N-14)
1 to 9.9 | CCCC[C@H]1C(=O)N(C)[C@@H](CCCC)C(=O)N[C@@H](CCCN)C(=O)NC(C(=O)NCC(N)=O)CSCC(=O)N[C@@H](Cc2ccc(O)cc2)C(=O)N(C)[C@@H](C)C(=O)N[C@@H](CC(N)=O)C(=O)N2CCC[C@H]2C(=O)N[C@@H](CC(N)=O)C(=O)N[C@@H](CC(C)C)C(=O)N2C[C@H](O)C[C@H]2C(=O)N[C@@H](Cc2c[nH]c3ccccc23)C(=O)N[C@@H](CO)C(=O)N[C@@H](Cc2c[nH]c3ccccc23)C(=O)N1C (some centres unmarked) [Example 9157] ({CH2CO}-Y[NMeA]NPNL[Hyp]WSW[NMeNle][NMeNle][Orn][ξC]G-NH2; thioether N-14)

Same assay, conditions: PD-L1-His 10 nM, PD-1-Ig 20 nM; read-out: HTRF Human PD-L1/PD-1 Binding Assay IC50

IC50 [nM] | SMILES
10.9 | CCCC[C@H]1C(=O)N2C[C@H](O)C[C@@H]2C(=O)N[C@@H](CC(=O)O)C(=O)N[C@@H](C(C)C)C(=O)N(C)[C@@H](Cc2ccccc2)C(=O)N[C@@H](CC(=O)O)C(=O)N2C[C@H](O)C[C@@H]2C(=O)N[C@@H](Cc2c[nH]c3ccccc23)C(=O)N[C@@H](Cc2ccc(O)cc2)C(=O)N[C@@H](CCN)C(=O)N[C@H](C(=O)NCC(N)=O)CSCC(=O)N[C@@H](Cc2cc(F)c(F)c(F)c2)C(=O)N(C)[C@@H](Cc2ccccc2)C(=O)N1C [Example 9347] ({CH2CO}-[Phe(3,4,5-F3)][NMeF][NMeNle][d(cisHyp)]DV[NMeF]D[d(cisHyp)]WY[Dab]CG-NH2; thioether N-13)
